The supplement of paper PMC7214452
Where a name gives a salt, the structure may show the parent alone.

What was measured:
Assay in all cases: normalized area under the dose-response curve (viability relative to DMSO control) (fraction); higher = less sensitive (more viable cells)
Conditions in all cases: exposure time not given
MM1.R (cancer type: MM) = system: MM1.R (cancer type: MM)
Experimental: (§1)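 25 myeloma and 15 non-Hodgkin lymphoma cell lines were exposed to each of 76 drugs as 7-point log dilutions (0.01 nM–10 µM) in duplicate. Viability was read with CellTiter-Glo and normalised to DMSO (0.1%) and staurosporine (10 µM) plate controls. Normalised AUC was calculated by the trapezoidal method relative to the negative control.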

[1] = system: JVM2 (cancer type: Mantle)
Experimental: as §1

[2] = system: OCI-MY5/CRBN (cancer type: MM)
Experimental: as §1

[3] = system: KMS12PE (cancer type: MM)
Experimental: as §1

[4] = system: OCI-LY3 (cancer type: DLBCL)
Experimental: as §1

OPM2 (cancer type: MM) = system: OPM2 (cancer type: MM)
Experimental: as §1

KMS34 (cancer type: MM) = system: KMS34 (cancer type: MM)
Experimental: as §1

L363 (cancer type: MM) = system: L363 (cancer type: MM)
Experimental: as §1

[5] = system: SR-786 (cancer type: TCL)
Experimental: as §1

[6] = system: OCI-MY7 (cancer type: MM)
Experimental: as §1

KMS18 (cancer type: MM) = system: KMS18 (cancer type: MM)
Experimental: as §1

LP1 (cancer type: MM) = system: LP1 (cancer type: MM)
Experimental: as §1

KMS26 (cancer type: MM) = system: KMS26 (cancer type: MM)
Experimental: as §1

MM1.S (cancer type: MM) = system: MM1.S (cancer type: MM)
Experimental: as §1

[7] = system: HuT 78 (cancer type: TCL)
Experimental: as §1

[8] = system: OCI-MY5/Vec (cancer type: MM)
Experimental: as §1

[9] = system: OCI-MY5 (cancer type: MM)
Experimental: as §1

XG2 (cancer type: MM) = system: XG2 (cancer type: MM)
Experimental: as §1

KMS11 (cancer type: MM) = system: KMS11 (cancer type: MM)
Experimental: as §1

SKMM2 (cancer type: MM) = system: SKMM2 (cancer type: MM)
Experimental: as §1

[10] = system: OCI-LY1 (cancer type: DLBCL)
Experimental: as §1

[11] = system: SU-DHL2 (cancer type: DLBCL)
Experimental: as §1

[12] = system: JeKo-1 (cancer type: Mantle)
Experimental: as §1

[13] = system: Mino (cancer type: Mantle)
Experimental: as §1

[14] = system: NCI-H929 (cancer type: MM)
Experimental: as §1

[15] = system: SU-DHL6 (cancer type: DLBCL)
Experimental: as §1

My-La (cancer type: TCL) = system: My-La (cancer type: TCL)
Experimental: as §1

[16] = system: KMS28PE (cancer type: MM)
Experimental: as §1

Se-Ax (cancer type: TCL) = system: Se-Ax (cancer type: TCL)
Experimental: as §1

[17] = system: SU-DHL1 (cancer type: TCL)
Experimental: as §1

JJN3 (cancer type: MM) = system: JJN3 (cancer type: MM)
Experimental: as §1

[18] = system: RPMI 8226 (cancer type: MM)
Experimental: as §1

[19] = system: OCI-LY19 (cancer type: DLBCL)
Experimental: as §1

FR4 (cancer type: MM) = system: FR4 (cancer type: MM)
Experimental: as §1

[20] = system: KMS28BM (cancer type: MM)
Experimental: as §1

[21] = system: Granta-519 (cancer type: Mantle)
Experimental: as §1

AMO1 (cancer type: MM) = system: AMO1 (cancer type: MM)
Experimental: as §1

U266 (cancer type: MM) = system: U266 (cancer type: MM)
Experimental: as §1

[22] = system: Karpas-299 (cancer type: TCL)
Experimental: as §1

EJM (cancer type: MM) = system: EJM (cancer type: MM)
Experimental: as §1

Structure (SMILES)	normalized area under the dose-response curve (MM1.R (cancer type: MM))	normalized area under the dose-response curve [1]	normalized area under the dose-response curve [2]	normalized area under the dose-response curve [3]	normalized area under the dose-response curve [4]	normalized area under the dose-response curve (OPM2 (cancer type: MM))	normalized area under the dose-response curve (KMS34 (cancer type: MM))	normalized area under the dose-response curve (L363 (cancer type: MM))	normalized area under the dose-response curve [5]	normalized area under the dose-response curve [6]	normalized area under the dose-response curve (KMS18 (cancer type: MM))	normalized area under the dose-response curve (LP1 (cancer type: MM))	normalized area under the dose-response curve (KMS26 (cancer type: MM))	normalized area under the dose-response curve (MM1.S (cancer type: MM))	normalized area under the dose-response curve [7]	normalized area under the dose-response curve [8]	normalized area under the dose-response curve [9]	normalized area under the dose-response curve (XG2 (cancer type: MM))	normalized area under the dose-response curve (KMS11 (cancer type: MM))	normalized area under the dose-response curve (SKMM2 (cancer type: MM))	normalized area under the dose-response curve [10]	normalized area under the dose-response curve [11]	normalized area under the dose-response curve [12]	normalized area under the dose-response curve [13]	normalized area under the dose-response curve [14]	normalized area under the dose-response curve [15]	normalized area under the dose-response curve (My-La (cancer type: TCL))	normalized area under the dose-response curve [16]	normalized area under the dose-response curve (Se-Ax (cancer type: TCL))	normalized area under the dose-response curve [17]	normalized area under the dose-response curve (JJN3 (cancer type: MM))	normalized area under the dose-response curve [18]	normalized area under the dose-response curve [19]	normalized area under the dose-response curve (FR4 (cancer type: MM))	normalized area under the dose-response curve [20]	normalized area under the dose-response curve [21]	normalized area under the dose-response curve (AMO1 (cancer type: MM))	normalized area under the dose-response curve (U266 (cancer type: MM))	normalized area under the dose-response curve [22]	normalized area under the dose-response curve (EJM (cancer type: MM))
Cc1ccc(F)c(NC(=O)Nc2ccc(-c3cccc4[nH]nc(N)c34)cc2)c1 [Linifanib]	0.58	0.25	0.55	0.73	0.983	0.587	0.33	0.605	0.721	0.5	0.56	0.348	0.709	0.55	0.63	0.57	0.468	0.547	0.65	0.667	0.995	0.981	0.759	0.735	0.59	0.955	0.852	0.722	0.627	0.519	0.603	0.165	0.987	0.441	0.646	0.861	0.567	0.549	0.651	0.526
N[C@@H](Cc1ccc(N(CCCl)CCCl)cc1)C(=O)O [Melphalan hydrochloride]	0.8	0.742	0.926	0.86	0.858	0.896	0.573	0.73	0.973	0.73	0.842	0.85	0.791	0.79	0.787	0.936	0.643	0.776	0.826	0.892	0.94	0.936	0.788	0.818	0.77	0.905	0.892	0.758	0.778	0.41	0.874	0.897	1.01	0.919	0.95	0.798	0.722	0.885	0.907	0.685
COc1nc(N)nc2c1ncn2[C@@H]1O[C@H](CO)[C@@H](O)[C@@H]1O [Nelarabine]	0.85	0.883	0.928	0.92	1.01	0.978	0.88	0.92	0.902	0.94	0.973	0.94	0.861	0.91	0.913	0.946	0.98	0.935	0.992	0.96	0.996	0.937	0.921	0.978	0.95	0.989	0.929	0.951	0.779	0.858	0.987	0.915	0.993	1.01	0.924	0.99	0.948	0.985	0.972	0.889
Cc1cn(-c2cc(NC(=O)c3ccc(C)c(Nc4nccc(-c5cccnc5)n4)c3)cc(C(F)(F)F)c2)cn1 [Nilotinib]	0.81	0.741	0.863	0.88	0.946	0.443	0.604	0.634	0.929	0.88	0.865	0.908	0.948	0.78	0.944	0.953	0.39	0.959	0.736	0.889	0.948	0.91	0.94	0.942	0.86	0.918	0.978	0.695	0.798	0.851	0.512	0.89	0.841	0.838	0.871	0.953	0.693	0.826	0.896	0.904
COC(=O)c1ccc2c(c1)NC(=O)/C2=C(\Nc1ccc(N(C)C(=O)CN2CCN(C)CC2)cc1)c1ccccc1 [Nintedanib]	0.84	0.815	0.929	0.94	0.992	0.844	0.835	0.798	0.828	0.97	0.934	0.828	0.764	0.79	0.883	0.957	0.846	0.764	0.723	0.943	0.98	0.966	0.933	0.956	0.87	0.919	0.902	0.737	0.92	0.839	0.979	0.791	0.906	0.911	0.87	0.942	0.801	0.941	0.862	0.784
C=CC(=O)Nc1cc(Nc2nccc(-c3cn(C)c4ccccc34)n2)c(OC)cc1N(C)CCN(C)C [Osimertinib]	0.45	0.597	0.551	0.46	0.931	0.489	0.337	0.466	0.521	0.42	0.442	0.406	0.532	0.44	0.473	0.535	0.399	0.422	0.417	0.506	0.937	0.925	0.626	0.601	0.47	0.911	0.769	0.476	0.445	0.463	0.439	0.429	0.872	0.582	0.53	0.834	0.423	0.451	0.574	0.429
CC(=O)O[C@H]1C(=O)[C@@]2(C)[C@H]([C@H](OC(=O)c3ccccc3)[C@]3(O)C[C@H](OC(=O)[C@H](O)[C@@H](NC(=O)c4ccccc4)c4ccccc4)C(C)=C1C3(C)C)[C@]1(OC(C)=O)CO[C@@H]1C[C@@H]2O [Paclitaxel]	0.58	0.78	0.595	0.85	0.582	0.89	0.787	0.726	0.417	0.86	0.702	0.865	0.767	0.52	0.329	0.478	0.666	0.542	0.853	0.98	0.354	0.642	0.3	0.556	0.49	0.793	0.896	0.675	0.635	0.611	0.993	0.781	0.652	0.703	0.698	0.544	0.595	0.51	0.454	0.751
CC(=O)c1c(C)c2cnc(Nc3ccc(N4CCNCC4)cn3)nc2n(C2CCCC2)c1=O [Palbociclib]	0.77	0.65	0.9	0.74	0.791	0.852	0.751	0.743	0.821	0.82	0.81	0.794	0.769	0.69	0.712	0.746	0.561	0.656	0.79	0.782	0.889	0.897	0.656	0.655	0.91	0.771	0.745	0.851	0.776	0.705	0.694	0.636	0.727	0.716	0.932	0.876	0.529	0.688	0.837	0.733
